According to US9012655B2, “Antimicrobial/adjuvant compounds and methods” (Denouamed, Inc., priority 2011, dated 2015):
Converted amounts (≈) assume the structure as drawn.

Experiments:
[1] = target: AcpS enzyme (Escherichia coli, UniProt P24224); assay: Measurement of AcpS inhibition ([3H]acetyl-CoA incorporation into apo-ACP); type: biochemical; settings: % activity vs blank-subtracted counts
How it was run: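 Acetyl transfer from [3H]acetyl-CoA (labelled stock mixed with unlabelled acetyl-CoA) onto apo-ACP by E. coli AcpS at RT, started with substrate; aliquots TCA-precipitated at time points up to 60 min. Pellet radioactivity by scintillation; results as % activity of blank-subtracted substrate counts.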

[2] = system: Methicillin-Resistant Staph. aureus (MRSA); assay: MIC, NCCLS M7-A6 broth microdilution, MRSA; type: cell-based; settings: Staphylococcus aureus, MRSA, 16 to 20 h, 35 degrees Celsius
How it was run: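 Broth microdilution per NCCLS M7-A6 in cation-adjusted Mueller-Hinton broth, doubling dilutions, inoculum 5×10^5 CFU/mL, DMSO controls included. Read after 16–20 h at 35 °C in ambient air; MIC is lowest concentration preventing visible growth.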

[3] = system: Staphylococcus aureus NRS384; assay: MIC panel of challenge pathogens (CLSI); type: cell-based; settings: Staphylococcus aureus NRS384
Experimental: (§1) The inocula for each bacterial strain were prepared by picking 5-10 distinct colonies from the culture plates and suspending them in the appropriate broth as per Clinical and Laboratory Standards Institute (CLSI) guidelines M07-A8, M24-A or M11-A7 as appropriate. The inoculum was resuspended by vigorous shaking on a vortex mixer for 15 s. The turbidity was then adjusted to McFarland standard 0.5 ([…]). The inoculum was further diluted in the appropriate media for MIC tests to give a final inoculum in each well of 2-8×10^5 CFU/ml. MICs were tested in the appropriate broth in accordance with the appropriate CLSI guidelines.
(§2) A stock solution of each compound was prepared at a concentration of 1.28 g/L in DMSO. The stock was further diluted in the appropriate media to give a top starting concentration of 128 mg/L in the assay. 100 μL of the appropriate media, as per CLSI guidelines, was dispensed into each well in columns 2-12. 200 μL of the each compound solution (at 256 mg/L) was dispensed into each well in column 1. 100 μL aliquots were pipetted from column 1 wells and dispensed into column 2 with a multichannel pipette (±2% coefficient of variation) thus diluting two-fold. 100 μL samples were then pipetted from column 2 wells and dispensed into column 3. The process was repeated through to column 10. The final 100 μL of diluted drug from column 10 was then discarded. Row 11 acted as a positive control (no compound, but organisms added), Row 12 acted as a negative control (no compound, and no organisms added).
(§3) 100 μL of the appropriate inoculum suspension in the appropriate media, as per CLSI guidelines, was added to the appropriate wells. […] All plates were incubated in the dark under aerobic or anaerobic conditions at 30-37° C. for 24-48 hours, according to the appropriate CLSI guideline. Plates were read visually 24-48 hours post inoculation. Endpoints of 100% inhibition were determined (CLSI interpretation endpoints following visual examination).
(§4) MIC50, MIC80, and 100% inhibition results are reported below in μg/mL in the following Tables, indicating each compound tested against a given species and strain: […]

[4] = system: Staphylococcus aureus AUR131 007035; assay: MIC panel of challenge pathogens (CLSI); type: cell-based; settings: AUR131007035, Staphylococcus aureus AUR131 007035
Experimental: as §1, §2, §3, §4

[5] = system: Staphylococcus aureus NRS382; assay: MIC panel of challenge pathogens (CLSI); type: cell-based; settings: Staphylococcus aureus NRS382
Experimental: as §1, §2, §3, §4

[6] = system: Staphylococcus aureus EUP MRSA004; assay: MIC panel of challenge pathogens (CLSI); type: cell-based; settings: EUPMRSA004, Staphylococcus aureus EUP MRSA004
Experimental: as §1, §2, §3, §4

[7] = system: Enterococcus faecalis ATCC51299; assay: MIC panel of challenge pathogens (CLSI); type: cell-based; settings: Enterococcus faecalis ATCC51299
Experimental: as §1, §2, §3, §4

[8] = system: Staphylococcus aureus EUP SAU040; assay: MIC panel of challenge pathogens (CLSI); type: cell-based; settings: EUPSAU040, Staphylococcus aureus EUP SAU040
Experimental: as §1, §2, §3, §4

[9] = system: Staphylococcus aureus NRS383; assay: MIC panel of challenge pathogens (CLSI); type: cell-based; settings: Staphylococcus aureus NRS383
Experimental: as §1, §2, §3, §4

[10] = system: Staphylococcus aureus AUR58 7005; assay: MIC panel of challenge pathogens (CLSI); type: cell-based; settings: AUR587005, Staphylococcus aureus AUR58 7005
Experimental: as §1, §2, §3, §4

[11] = system: Staphylococcus aureus NRS2 (ATCC700698); assay: MIC panel of challenge pathogens (CLSI); type: cell-based; settings: Staphylococcus aureus NRS2 (ATCC700698)
Experimental: as §1, §2, §3, §4

AcpS enzyme, sequence (P24224 whole entry): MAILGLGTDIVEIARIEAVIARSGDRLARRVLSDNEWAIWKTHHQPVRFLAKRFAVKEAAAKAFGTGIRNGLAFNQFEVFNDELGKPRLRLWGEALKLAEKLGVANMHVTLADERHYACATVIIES

Question: Which activity at 50 µM ([1]; test compound 50 uM) does the source give for Cc1cc(Cl)ccc1-c1cc(-c2nnn[nH]2)sc1-c1ccc(C)c2ccccc12 [DNM0576, 5-(4-(4-Chloro-2-methylphenyl)-5-(4-methylnaphthalen-1-yl)thiophen-2-yl)-1H-tetrazole] here?
Answer: 5.88%

Question: And the remaining activity at 500 µM ([1]; test compound 500 uM)?
Answer: 0.15%

Question: And the MIC [2]?
Answer: 4 µM (≈ 1.67 µg/mL)

Question: And the MIC ([3]; read-out: 100% inhibition)?
Answer: 0.5 µg/mL (≈ 1.2 µM)

Question: What about the MIC50 ([3]; read-out: MIC50 (50%)) of the same molecule?
Answer: 0.5 µg/mL (≈ 1.2 µM)

Question: And the MIC80 ([3]; read-out: MIC80 (80%))?
Answer: 0.5 µg/mL (≈ 1.2 µM)

Question: And the MIC ([4]; read-out: 100% inhibition)?
Answer: 0.5 µg/mL (≈ 1.2 µM)

Question: What about the MIC50 ([4]; read-out: MIC50 (50%)) of the same molecule?
Answer: 0.5 µg/mL (≈ 1.2 µM)

Question: What about the MIC80 ([4]; read-out: MIC80 (80%)) of the same molecule?
Answer: 0.5 µg/mL (≈ 1.2 µM)

Question: And the MIC ([5]; read-out: 100% inhibition)?
Answer: 0.5 µg/mL (≈ 1.2 µM)

Question: And the MIC50 ([5]; read-out: MIC50 (50%))?
Answer: 0.5 µg/mL (≈ 1.2 µM)

Question: And the MIC80 ([5]; read-out: MIC80 (80%))?
Answer: 0.5 µg/mL (≈ 1.2 µM)

Question: What about the MIC ([6]; read-out: 100% inhibition) of the same molecule?
Answer: ≤ 0.25 µg/mL

Question: What about the MIC50 ([6]; read-out: MIC50 (50%)) of the same molecule?
Answer: ≤ 0.25 µg/mL

Question: What about the MIC80 ([6]; read-out: MIC80 (80%)) of the same molecule?
Answer: ≤ 0.25 µg/mL

Question: What about the MIC ([7]; read-out: 100% inhibition) of the same molecule?
Answer: 1 µg/mL (≈ 2.4 µM)

Question: What about the MIC50 ([7]; read-out: MIC50 (50%)) of the same molecule?
Answer: 1 µg/mL (≈ 2.4 µM)

Question: And the MIC80 ([7]; read-out: MIC80 (80%))?
Answer: 1 µg/mL (≈ 2.4 µM)

Question: And the MIC ([8]; read-out: 100% inhibition)?
Answer: ≤ 0.25 µg/mL

Question: What about the MIC50 ([8]; read-out: MIC50 (50%)) of the same molecule?
Answer: ≤ 0.25 µg/mL

Question: What about the MIC80 ([8]; read-out: MIC80 (80%)) of the same molecule?
Answer: ≤ 0.25 µg/mL

Question: What about the MIC ([9]; read-out: 100% inhibition) of the same molecule?
Answer: 0.5 µg/mL (≈ 1.2 µM)

Question: And the MIC50 ([9]; read-out: MIC50 (50%))?
Answer: 0.5 µg/mL (≈ 1.2 µM)

Question: And the MIC80 ([9]; read-out: MIC80 (80%))?
Answer: 0.5 µg/mL (≈ 1.2 µM)

Question: And the MIC ([10]; read-out: 100% inhibition)?
Answer: 0.5 µg/mL (≈ 1.2 µM)

Question: What about the MIC50 ([10]; read-out: MIC50 (50%)) of the same molecule?
Answer: 0.5 µg/mL (≈ 1.2 µM)

Question: And the MIC80 ([10]; read-out: MIC80 (80%))?
Answer: 0.5 µg/mL (≈ 1.2 µM)

Question: And the MIC ([11]; read-out: 100% inhibition)?
Answer: 0.5 µg/mL (≈ 1.2 µM)

Question: What about the MIC50 ([11]; read-out: MIC50 (50%)) of the same molecule?
Answer: 0.5 µg/mL (≈ 1.2 µM)

Question: And the MIC80 ([11]; read-out: MIC80 (80%))?
Answer: 0.5 µg/mL (≈ 1.2 µM)
